Measurements reported in patent US6767738B1, “Method of isolating adult mammalian CNS-derived progenitor stem cells using density gradient centrifugation” (The Salk Institute for Biological Studies, priority 1999, dated 2004).

System: clonal stem cells (AP14)
Assay: Neuronal differentiation of clonal adult stem cell cultures (Map2ab immunofluorescence)
Format: cell-based, rat
Description: Cell Culture. For proliferating conditions, clonal stem cells (AP14) were cultured in Dulbecco's Modified Eagles Medium/Ham's F12 (DMEM/F12, 1:1) containing N2 supplement (Gibco BRL, Gaithersburg, Md.) and 20 ng/ml rhFGF-2 (provided by A. Baird, Prizm Pharmaceuticals Inc., La Jolla, Calif.). Culture dishes (Becton Dickinsin Labware, Lincoln Park, N.J.) were coated with polyomithine and mouse laminin as previously described by Ray, et al., Proliferation, differentiation and long-term culture of primary hippocampal neurons, Proc Natl Acad Sci USA 90:3602-3606 (1993). For differentiation experiments, cells were plated into polyornithine/laminin coated glass chamber slides (Nunc, Naperville, Ill.) at a density of 2.5—103 per cm2. […] Louis, Mo.). For further differentiation, the medium was replaced by N2 medium containing 0.5% FBS and one of the following: sterile water (control solvent), mouse 2.55 NGF (50 ng/ml, Boehringer Mannheim, Indianapolis, Ind.), rhBDNF (20 ng/ml, Alomone Labs, Jerusalem, Israel), rhNT-3 (40 ng/ml, Genentech, South San Francisco, Calif.). […]
Immunofluorescence. […] Both the average percentage and the absolute number +/− SEM of immunofluorescent cells were determined by counting 10 or 50 high power fields (20×) visualized under fluorescence. The total number of cells was counted using nuclear counterstaining with 4′,6diamidino-2-phenylindole (DAPI, Sigma). […]

CC1=C(/C=C/C(C)=C/C=C/C(C)=C/C(=O)O)C(C)(C)CCC1 [RA, all-trans retinoic acid]
number of Map2ab-immunoreactive (IR) neurons relative to growth factor withdrawal and 0.5% serum alone (FGF-2 withdrawal, 500 nM RA plus 0.5% FBS 6 days, then 6 days 0.5% serum alone): more than tripled
increase in number of MAP2ab-positive cells (RA for 6 days, then RA withdrawn for additional 6 days): 3 fold
